Active and inactive are the calls of the source. No cut-off for these calls is given here. Square brackets hold non-standard residues; d marks the D form. Peptide text beside a SMILES is read from it. * marks the point of attachment. Leu(ol) = CC(C)C[C@H](N)CO; dIva = CC[C@@](C)(N)C(=O)O; Octanoyl = CCCCCCCC(=O)*; Aib = CC(C)(N)C(=O)O
Legend:
SNU-449 = experiment: Antiproliferative activity against human SNU-449 cells assessed as reduction in cell viability incubated for 24 hrs by MTT assay; type: functional, cell-based; details: SNU-449, 24 h
[Candida] auris = Antifungal activity against Candida auris; type: functional, organism-based; details: Candidozyma auris
HCT-116 = experiment: Antiproliferative activity against human HCT-116 cells assessed as reduction in cell viability incubated for 24 hrs by MTT assay; type: functional, cell-based; details: HCT-116, 24 h
Candida albicans = experiment: Antifungal activity against Candida albicans; type: functional, organism-based
SK-OV-3 = experiment: Antiproliferative activity against human SK-OV-3 cells assessed as reduction in cell viability incubated for 24 hrs by MTT assay; type: functional, cell-based; details: SK-OV-3, 24 h
DU-145 = experiment: Antiproliferative activity against human DU-145 cells assessed as reduction in cell viability incubated for 24 hrs by MTT assay; type: functional, cell-based; details: DU-145, 24 h
MDA-MB-231 = experiment: Antiproliferative activity against human MDA-MB-231 cells assessed as reduction in cell viability incubated for 24 hrs by MTT assay; type: functional, cell-based; details: MDA-MB-231, 24 h
Fusarium oxysporum = experiment: Antifungal activity against Fusarium oxysporum KCTC 16654; type: functional, organism-based

Row | Compound | IC50 (SNU-449) [µM] | Activity ([Candida] auris) | IC50 (HCT-116) [µM] | Activity (Candida albicans) | IC50 (SK-OV-3) [µM] | IC50 (DU-145) [µM] | IC50 (MDA-MB-231) [µM] | Activity (Fusarium oxysporum)
1 | CC[C@H](C)[C@H](NC(=O)C(C)(C)NC(=O)C(C)(C)NC(=O)[C@H](C)NC(=O)C(C)(C)NC(C)=O)C(=O)N[C@@H](CCC(N)=O)C(=O)NC(C)(C)C(=O)NC(C)(C)C(=O)NC(C)(C)C(=O)N[C@@H](CO)C(=O)N[C@H](C(=O)NC(C)(C)C(=O)N1CCC[C@H]1C(=O)N[C@H](C(=O)NC(C)(C)C(=O)NC(C)(C)C(=O)N[C@@H](CCC(N)=O)C(=O)N[C@@H](CCC(N)=O)C(=O)N[C@H](CO)CC(C)C)C(C)C)C(C)C (Ac-[Aib]A[Aib][Aib]IQ[Aib][Aib][Aib]SV[Aib]PV[Aib][Aib]QQ[Leu(ol)]) | > 150 | inactive | 9 | inactive | 26.7 | 12.2 | 8.7 | inactive
2 | CCCCCCCC(=O)NCC(=O)N[C@@H](C)C(=O)N[C@H](C(=O)NC(C)(C)C(=O)N[C@@H](C)C(=O)N[C@@H](CC(C)C)C(=O)N[C@H](CO)CC(C)C)C(C)C (Octanoyl-GAV[Aib]AL[Leu(ol)]) | > 150 | inactive | > 150 | inactive | 60.7 | 31.8 | 25.7 | inactive
3 | CCCCCCCC(=O)NCC(=O)N[C@@H](C)C(=O)N[C@@H](CC(C)C)C(=O)NC(C)(C)C(=O)N[C@@H](C)C(=O)N[C@@H](CC(C)C)C(=O)N[C@H](CO)CC(C)C (Octanoyl-GAL[Aib]AL[Leu(ol)]) | 17.3 | inactive | 12 | inactive | 12.5 | 13 | 7.3 | inactive
4 | CC(=O)NC(C)(C)C(=O)N[C@@H](C)C(=O)NC(C)(C)C(=O)NC(C)(C)C(=O)N[C@@H](CC(C)C)C(=O)N[C@@H](CCC(N)=O)C(=O)NC(C)(C)C(=O)NC(C)(C)C(=O)NC(C)(C)C(=O)N[C@@H](CO)C(=O)N[C@H](C(=O)NC(C)(C)C(=O)N1CCC[C@H]1C(=O)N[C@H](C(=O)NC(C)(C)C(=O)NC(C)(C)C(=O)N[C@@H](CCC(N)=O)C(=O)N[C@@H](CCC(N)=O)C(=O)N[C@H](CO)CC(C)C)C(C)C)C(C)C (Ac-[Aib]A[Aib][Aib]LQ[Aib][Aib][Aib]SV[Aib]PV[Aib][Aib]QQ[Leu(ol)]) | 30.8 | inactive | 8.7 | inactive | 11.9 | 12 | 7.2 | inactive
5 | CC[C@H](C)[C@H](NC(=O)C(C)(C)NC(=O)C(C)(C)NC(=O)[C@H](CO)NC(=O)C(C)(C)NC(C)=O)C(=O)N[C@@H](CCC(N)=O)C(=O)NC(C)(C)C(=O)NC(C)(C)C(=O)NC(C)(C)C(=O)N[C@@H](CO)C(=O)N[C@@H](CC(C)C)C(=O)NC(C)(C)C(=O)N1CCC[C@H]1C(=O)N[C@H](C(=O)NC(C)(C)C(=O)NC(C)(C)C(=O)N[C@@H](CCC(N)=O)C(=O)N[C@@H](CCC(N)=O)C(=O)N[C@H](CO)CC(C)C)C(C)C (Ac-[Aib]S[Aib][Aib]IQ[Aib][Aib][Aib]SL[Aib]PV[Aib][Aib]QQ[Leu(ol)]) | 11.3 | inactive | 4.3 | inactive | 2.4 | 2 | 1 | inactive
6 | COc1cccc2c1C(=O)c1c(O)c3c(c(O)c1C2=O)C[C@@](O)(C(=O)CO)C[C@@H]3O[C@H]1C[C@H](N)[C@H](O)[C@H](C)O1 [DOXORUBICIN] | 71.4 | inactive | 73.6 | inactive | 88.4 | 91.2 |  | inactive
7 | CC(=O)NC(C)(C)C(=O)N[C@@H](C)C(=O)NC(C)(C)C(=O)NC(C)(C)C(=O)N[C@@H](CC(C)C)C(=O)N[C@@H](CCC(N)=O)C(=O)NC(C)(C)C(=O)NC(C)(C)C(=O)NC(C)(C)C(=O)N[C@@H](CO)C(=O)N[C@@H](CC(C)C)C(=O)NC(C)(C)C(=O)N1CCC[C@H]1C(=O)N[C@H](C(=O)NC(C)(C)C(=O)NC(C)(C)C(=O)N[C@@H](CCC(N)=O)C(=O)N[C@@H](CCC(N)=O)C(=O)N[C@H](CO)CC(C)C)C(C)C (Ac-[Aib]A[Aib][Aib]LQ[Aib][Aib][Aib]SL[Aib]PV[Aib][Aib]QQ[Leu(ol)]) | 10.4 | inactive | 3.7 | inactive | 4.1 | 4.4 | 2.3 | inactive
8 | CCCCCCCC(=O)NCC(=O)N[C@@H](C)C(=O)N[C@@H](CC(C)C)C(=O)N[C@](C)(CC)C(=O)N[C@@H](C)C(=O)N[C@H](C(=O)N[C@H](CO)CC(C)C)[C@@H](C)CC (Octanoyl-GAL[dIva]AI[Leu(ol)]) | 8.8 | inactive | 8 | inactive | 6.3 | 4.5 | 4.5 | inactive
9 | CC(=O)NC(C)(C)C(=O)N[C@@H](CO)C(=O)NC(C)(C)C(=O)NC(C)(C)C(=O)N[C@@H](CC(C)C)C(=O)N[C@@H](CCC(N)=O)C(=O)NC(C)(C)C(=O)NC(C)(C)C(=O)NC(C)(C)C(=O)N[C@@H](CO)C(=O)N[C@@H](CC(C)C)C(=O)NC(C)(C)C(=O)N1CCC[C@H]1C(=O)N[C@H](C(=O)NC(C)(C)C(=O)NC(C)(C)C(=O)N[C@@H](CCC(N)=O)C(=O)N[C@@H](CCC(N)=O)C(=O)N[C@H](CO)CC(C)C)C(C)C (Ac-[Aib]S[Aib][Aib]LQ[Aib][Aib][Aib]SL[Aib]PV[Aib][Aib]QQ[Leu(ol)]) | 13 | inactive | 4.4 | inactive | 12.4 | 3.3 | 2.5 | inactive
10 | CC[C@H](C)[C@H](NC(=O)C(C)(C)NC(=O)C(C)(C)NC(=O)[C@H](C)NC(=O)C(C)(C)NC(C)=O)C(=O)N[C@@H](CCC(N)=O)C(=O)NC(C)(C)C(=O)NC(C)(C)C(=O)NC(C)(C)C(=O)N[C@@H](CO)C(=O)N[C@@H](CC(C)C)C(=O)NC(C)(C)C(=O)N1CCC[C@H]1C(=O)N[C@H](C(=O)NC(C)(C)C(=O)NC(C)(C)C(=O)N[C@@H](CCC(N)=O)C(=O)N[C@@H](CCC(N)=O)C(=O)N[C@H](CO)CC(C)C)C(C)C (Ac-[Aib]A[Aib][Aib]IQ[Aib][Aib][Aib]SL[Aib]PV[Aib][Aib]QQ[Leu(ol)]) | 5.7 | inactive | 3.2 | inactive | 3.8 | 2.1 | 2.3 | inactive
11 | CCCCCCCC(=O)NCC(=O)N[C@@H](C)C(=O)N[C@H](C(=O)N[C@](C)(CC)C(=O)N[C@@H](C)C(=O)N[C@@H](CC(C)C)C(=O)N[C@H](CO)CC(C)C)C(C)C | 39 | inactive | 8.9 | inactive | 47 | 15.1 | 11.5 | inactive
12 | CCCCCCCC(=O)NCC(=O)N[C@@H](C)C(=O)N[C@@H](CC(C)C)C(=O)NC(C)(C)C(=O)N[C@@H](C)C(=O)N[C@H](C(=O)N[C@H](CO)CC(C)C)[C@@H](C)CC (Octanoyl-GAL[Aib]AI[Leu(ol)]) | > 150 | inactive | 27.4 | inactive | 18.7 | 25.4 | 17.6 | inactive
13 | CC(=O)NC(C)(C)C(=O)N[C@@H](CO)C(=O)NC(C)(C)C(=O)NC(C)(C)C(=O)N[C@@H](CC(C)C)C(=O)N[C@@H](CCC(N)=O)C(=O)NC(C)(C)C(=O)NC(C)(C)C(=O)NC(C)(C)C(=O)N[C@@H](CO)C(=O)N[C@H](C(=O)NC(C)(C)C(=O)N1CCC[C@H]1C(=O)N[C@H](C(=O)NC(C)(C)C(=O)NC(C)(C)C(=O)N[C@@H](CCC(N)=O)C(=O)N[C@@H](CCC(N)=O)C(=O)N[C@H](CO)CC(C)C)C(C)C)C(C)C (Ac-[Aib]S[Aib][Aib]LQ[Aib][Aib][Aib]SV[Aib]PV[Aib][Aib]QQ[Leu(ol)]) | 131 | inactive | 32.8 | inactive | 41.1 | 30.9 | 80.2 | inactive
14 | CCCCCCCC(=O)NCC(=O)N[C@@H](C)C(=O)N[C@@H](CC(C)C)C(=O)N[C@](C)(CC)C(=O)N[C@@H](C)C(=O)N[C@@H](CC(C)C)C(=O)N[C@H](CO)CC(C)C | 222 | inactive | 37.9 | inactive | 50.3 | 18.2 | 18.5 | inactive
